Measured values published in patent US11384079B2, “6-5 fused rings as C5a inhibitors” (CHEMOCENTRYX, INC., priority 2017, dated 2022).

Molecular target: T1, C5aR (Homo sapiens, UniProt P21730)
T1 construct: U937 cells are a monocytic cell line which express C5aR; host or cells: U937 cells (cAMP treated) or isolated neutrophils
T1 sequence (P21730 1-350): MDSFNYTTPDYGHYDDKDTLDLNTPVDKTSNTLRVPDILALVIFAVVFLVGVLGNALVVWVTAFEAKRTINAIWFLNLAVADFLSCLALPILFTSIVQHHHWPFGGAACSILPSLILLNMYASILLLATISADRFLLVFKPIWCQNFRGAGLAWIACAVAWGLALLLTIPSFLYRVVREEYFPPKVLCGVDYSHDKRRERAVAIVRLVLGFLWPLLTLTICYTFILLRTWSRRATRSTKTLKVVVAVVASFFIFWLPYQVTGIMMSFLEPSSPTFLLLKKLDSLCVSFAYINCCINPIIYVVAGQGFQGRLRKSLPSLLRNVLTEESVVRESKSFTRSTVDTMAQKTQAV
Assay: chemotaxis assay (C5aR mediated migration)
Type: cell-based
Conditions: migration of U937 or neutrophil cells toward C5a (0.03 nM), 1.5 hours at 37° C., read-out: Mig IC50
Outline: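 Migration of cAMP-treated U937 cells (0.5 mM overnight), or of human or murine neutrophils, toward C5a was measured through 5 μm polycarbonate filters in HBSS with 1% FBS. SDF-1α served as a specificity control. After 1.5 h at 37 °C, lower-chamber cells were counted directly or by CyQuant.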

Structure (SMILES)	IC50
CCc1cccc(CC)c1-n1nc2c(c1-c1c(F)cc(C)c3[nH]ccc13)CN(c1ccc(C(F)(F)F)cn1)CC2 [Example 1.143]	< 5 nM
Cc1cccc(C)c1-n1nc2c(c1-c1ccc(Cl)c3[nH]ccc13)CN(c1ncc(C(C)C)cn1)CC2 [Example 1.151]	< 5 nM
CCc1cccc(CC)c1-n1nc2c(c1-c1ccc(Cl)c3[nH]ccc13)CN(c1ncc(F)cn1)CC2 [Example 1.158]	< 5 nM
CCc1cccc(CC)c1-n1nc2c(c1-c1ccc(Cl)c3[nH]ccc13)CN(c1ncccn1)CC2 [Example 1.157]	< 5 nM
CCc1cccc(CC)c1-n1nc2c(c1-c1cc(F)c(CO)c3[nH]ccc13)CN(c1ncc(C(C)(C)O)cn1)CC2 [Example 1.068]	5 to 50 nM
CCc1cccc(CC)c1-n1nc2c(c1-c1nccc3[nH]cc(Cl)c13)CN(c1ncc(C(F)(F)F)cn1)CC2 [Example 1.005]	< 5 nM
Cc1nc2cc(-c3c4c(nn3-c3c(C)cccc3OCC(C)C)CCN(c3ncc(C(F)(F)F)cc3F)C4)ccc2[nH]1 [Example 1.224]	> 500 nM
CCc1cccc(CC)c1-n1nc2c(c1-c1ccc3[nH]ccc3c1)CN(C1CCOCC1)CC2 [Example 1.208]	50 to 500 nM
Cc1cccc(OCC(C)C)c1-n1nc2c(c1-c1ccc3[nH]ccc3c1)CN(Cc1ccc(C(F)(F)F)cc1C(F)(F)F)CC2 [Example 1.234]	5 to 50 nM
Cc1cccc(C)c1-n1nc2c(c1-c1c(F)cc(C)c3[nH]ccc13)CN(c1ncc(C(C)C)cn1)CC2 [Example 1.096]	< 5 nM
Cc1cccc(OCC(C)C)c1-n1nc2c(c1-c1ccc3[nH]ccc3c1)CN(c1nc(Cl)ns1)CC2 [Example 1.214]	5 to 50 nM
CCc1cccc(CC)c1-n1nc2c(c1-c1c(F)cc(C)c3[nH]ccc13)CN(c1ccc(C(C)C)cn1)CC2 [Example 1.128]	< 5 nM
CCc1cccc(CC)c1-n1nc2c(c1-c1ccc(Cl)c3[nH]ccc13)CN(c1ncc(C)c(CO)n1)CC2 [Example 1.072]	5 to 50 nM
CCc1cccc(CC)c1-n1nc2c(c1-c1cc(F)c(OC)c3[nH]cc(Cl)c13)CN(c1ncc(C(F)(F)F)cn1)CC2 [Example 1.032]	< 5 nM
C=C(C)c1nsc(N2CCc3nn(-c4c(C)cccc4OCC(C)C)c(-c4ccc5[nH]ccc5c4)c3C2)n1 [Example 1.213]	5 to 50 nM
CCc1cccc(CC)c1-n1nc2c(c1-c1ccc(F)c3[nH]ccc13)CN(c1ncc(C(C)C)cc1F)CC2 [Example 1.180]	< 5 nM
CCc1cccc(CC)c1-n1nc2c(c1-c1ccc(Cl)c3[nH]ccc13)CN(c1cnc(C3CC3)cn1)CC2 [Example 1.067]	5 to 50 nM
CCc1cccc(CC)c1-n1nc2c(c1-c1cncc3[nH]ccc13)CN(c1ncc(C(F)(F)F)cn1)CC2 [Example 1.022]	50 to 500 nM
Cc1cccc(C)c1-n1nc2c(c1-c1ccc3[nH]ccc3c1F)CN(c1ncc(Cl)cc1Cl)CC2 [Example 1.195]	5 to 50 nM
Cc1cccc(C)c1-n1nc2c(c1-c1cc3cc[nH]c3cc1F)CN(c1ncc(Cl)cc1Cl)CC2 [Example 1.193]	50 to 500 nM
CCc1cccc(CC)c1-n1nc2c(c1-c1ccc(Cl)c3[nH]ccc13)CN(C(=O)Nc1ccccc1)CC2 [Example 1.149]	5 to 50 nM

Structure (SMILES)	IC50
Cc1cccc(C)c1-n1nc2c(c1-c1ccc3[nH]cc(C#N)c3c1)CN(c1ncc(Cl)cc1Cl)CC2 [Example 1.190]	> 500 nM
CCc1cccc(CC)c1-n1nc2c(c1-c1ccc(F)c3[nH]ccc13)CN(c1ncc(C(F)(F)F)cc1Cl)CC2 [Example 1.183]	5 to 50 nM
Cc1cccc(OCC(C)C)c1-n1nc2c(c1-c1ccc3[nH]ccc3c1)CN(C(C)(C)c1ccccc1)CC2 [Example 1.199]	< 5 nM
CCc1cccc(CC)c1-n1nc2c(c1-c1ccc(Cl)c3[nH]ccc13)CN(c1ncc(C(C)(C)O)cn1)CC2 [Example 1.074]	< 5 nM
Cc1cccc(C)c1-n1nc2c(c1-c1ccc3[nH]ccc3c1)CN(C(=O)OC(C)(C)C)CC2 [Example 1.240]	5 to 50 nM
CCc1cccc(CC)c1-n1nc2c(c1-c1ccc(F)c3[nH]ccc13)CN(c1ncc(C(F)(F)F)cn1)CC2 [Example 1.179]	< 5 nM
CCc1cccc(CC)c1-n1nc2c(c1-c1cc(F)c(CO)c3[nH]cnc13)CN(c1ncc(C(F)(F)F)cn1)CC2 [Example 1.030]	< 5 nM
CCc1cccc(CC)c1-n1nc2c(c1-c1cc(F)c(OC)c3[nH]c(F)nc13)CN(c1ncc(C(F)(F)F)cn1)CC2 [Example 1.019]	5 to 50 nM
CCc1cccc(CC)c1-n1nc2c(c1-c1c(F)cc(CO)c3[nH]ccc13)CN(c1ncc(C(F)(F)F)cc1F)CC2 [Example 1.104]	< 5 nM
CCc1cccc(CC)c1-n1nc2c(c1-c1c(F)cc(Cl)c3[nH]ccc13)CN(c1ncc(CN3CCCC3)cn1)CC2 [Example 1.055]	5 to 50 nM
CCc1cccc(CC)c1-n1nc2c(c1-c1cc(Cl)cc3[nH]cnc13)CN(c1ncc(C(F)(F)F)cn1)CC2 [Example 1.025]	50 to 500 nM
CCc1cccc(CC)c1-n1nc2c(c1-c1ccc(CO)c3[nH]ccc13)CN(c1ncc(C(F)(F)F)cc1F)CC2 [Example 1.174]	< 5 nM
CCc1cccc(CC)c1-n1nc2c(c1-c1ccc(CO)c3[nH]ccc13)CN(c1ccc(C(F)(F)F)cn1)CC2 [Example 1.171]	< 5 nM
CCc1cccc(CC)c1-n1nc2c(c1-c1ccc3[nH]ccc3c1)CN(C(C)C(C)C)CC2 (stereo not shown) [Example 1.211]	5 to 50 nM
CCc1cccc(CC)c1-n1nc2c(c1-c1ccc(Cl)c3[nH]cnc13)CN(c1ncc(C(F)(F)F)cn1)CC2 [Example 1.069]	< 5 nM
Cc1cccc(OCC(C)C)c1-n1nc2c(c1-c1cccc3[nH]ccc13)CN(c1ncc(Cl)cc1Cl)CC2 [Example 1.201]	5 to 50 nM
Cc1cccc(C)c1-n1nc2c(c1-c1cc(F)c(C)c3[nH]ccc13)CN(c1ncc(C(F)(F)F)cc1F)CC2 [Example 1.103]	5 to 50 nM
CCc1cccc(CC)c1-n1nc2c(c1-c1ccc3[nH]cnc3c1)CN(c1ncc(C(F)(F)F)cn1)CC2 [Example 1.017]	> 500 nM
CCc1cccc(CC)c1-n1nc2c(c1-c1cc(F)c(CO)c3[nH]ccc13)CN(c1ncc(C(F)(F)F)cn1)CC2 [Example 1.077]	< 5 nM
Cc1cccc(C)c1-n1nc2c(c1-c1ccc(Cl)c3[nH]ccc13)CN(c1ncc(Cl)cn1)CC2 [Example 1.155]	5 to 50 nM
Cc1cccc(OCC(C)C)c1-n1nc2c(c1-c1ccc3[nH]ccc3c1)CN(C(C)CC(F)(F)F)CC2 (stereo not shown) [Example 1.206]	5 to 50 nM

Structure (SMILES)	IC50
Cc1cccc(C)c1-n1nc2c(c1-c1cc(F)c3[nH]ccc3c1)CN(c1ncc(Cl)cc1Cl)CC2 [Example 1.194]	50 to 500 nM
CCc1cccc(CC)c1-n1nc2c(c1-c1c(F)cc(CO)c3[nH]ccc13)CN(c1ncc(C(F)(F)F)cn1)CC2 [Example 1.101]	< 5 nM
CCc1cccc(CC)c1-n1nc2c(c1-c1c(F)cc(Cl)c3[nH]ccc13)CN(c1ncc(C(F)(F)F)cn1)CC2 [Example 1.137]	< 5 nM
CCc1cccc(CC)c1-n1nc2c(c1-c1ccc3[nH]ccc3c1)CN(c1ncc(C(F)(F)F)cn1)CC2 [Example 1.039]	5 to 50 nM
Cc1cccc(OCC(C)C)c1-n1nc2c(c1-c1cccc3[nH]ccc13)CN(Cc1cc(Cl)ccc1C(F)(F)F)CC2 [Example 1.205]	5 to 50 nM
CCc1cccc(CC)c1-n1nc2c(c1-c1cc(F)c(Cl)c3[nH]ccc13)CN(c1ncc(C(F)(F)F)cn1)CC2 [Example 1.084]	< 5 nM
CCc1cccc(CC)c1-n1nc2c(c1-c1c(F)cc(F)c3[nH]ccc13)CN(c1ncc(C(F)(F)F)cc1F)CC2 [Example 1.182]	5 to 50 nM
Cc1cccc(OCC(C)C)c1-n1nc2c(c1-c1ccc3cc[nH]c3c1)CN(CC(C)(C)C)CC2 [Example 1.236]	50 to 500 nM
CCc1cccc(CC)c1-n1nc2c(c1-c1ccc(C(N)=O)c3[nH]ccc13)CN(c1ncc(C(F)(F)F)cc1F)CC2 [Example 1.168]	50 to 500 nM
CCc1cccc(CC)c1-n1nc2c(c1-c1ccc(Cl)c3[nH]ccc13)CN(c1ncc(CO)cn1)CC2 [Example 1.097]	5 to 50 nM
CCc1cccc(CC)c1-n1nc2c(c1-c1cc(F)c(Cl)c3[nH]ccc13)CN(c1ncc(C(F)(F)F)cc1F)CC2 [Example 1.085]	< 5 nM
CCc1cccc(CC)c1-n1nc2c(c1-c1cc(F)c(C)c3[nH]ccc13)CN(c1ncc(C(F)(F)F)cc1F)CC2 [Example 1.123]	< 5 nM
Cc1cccc(C)c1-n1nc2c(c1-c1ccc(C)c3[nH]ccc13)CN(c1ncc(C(F)(F)F)cn1)CC2 [Example 1.107]	5 to 50 nM
CCc1cccc(CC)c1-n1nc2c(c1-c1ccc(Cl)c3[nH]ccc13)CN(c1ncc(OC(C)C)cn1)CC2 [Example 1.063]	< 5 nM
CCc1cccc(CC)c1-n1nc2c(c1-c1ccc(Cl)c3[nH]ccc13)CN(c1ncc(C)c(C(=O)O)n1)CC2 [Example 1.075]	50 to 500 nM
CCc1cccc(CC)c1-n1nc2c(c1-c1ccc(Cl)c3[nH]ccc13)CN(c1cnccn1)CC2 [Example 1.057]	< 5 nM
CCc1cccc(CC)c1-n1nc2c(c1-c1c(F)cc(Cl)c3[nH]ccc13)CN(c1ncc(OC(C)C)cn1)CC2 [Example 1.048]	< 5 nM
Cc1cccc(OCC(C)C)c1-n1nc2c(c1-c1ccc3[nH]cc(C)c3c1)CN(c1ncc(C(F)(F)F)cc1F)CC2 [Example 1.204]	50 to 500 nM
CCc1cccc(CC)c1-n1nc2c(c1-c1cc(F)c(OC)c3[nH]ncc13)CN(c1ncc(C(F)(F)F)cc1F)CC2 [Example 1.051]	< 5 nM
